Six compounds from patent US20070099970A1, “Immunomodulatory compounds that target and inhibit the pY'binding site of tyrosene kinase p56 LCK SH2 domain” (priority 2005, published 2007) can be followed below.

SMILES strings stand for the structures.

T1 sequence (P06239 127-224 limits assumed): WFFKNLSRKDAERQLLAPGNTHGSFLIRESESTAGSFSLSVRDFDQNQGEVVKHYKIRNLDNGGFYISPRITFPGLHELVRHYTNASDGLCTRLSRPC

This test has as its target T1, recombinant GST Lck SH2 domain fusion protein (Homo sapiens, UniProt P06239).
T1 construct: recombinant GST Lck SH2 domain fusion protein; made in house
The test is described as follows: solid phase EIA inhibition assay: binding of GST Lck SH2 domain to CD3 ζ chain ITAM 2 phosphopeptide. The settings on record: assay example 1, stronger inhibitors >60% inhibition, weaker inhibitors <60% inhibition. How it is done: Compounds of the invention were obtained from commercial sources and were tested using a high-throughput Enzyme Immunoassay (EIA) developed to rapidly quantify inhibition.
Biological activities were measured using said EIA assay using 96 well medium binding EIA plates (Costar). Wells were coated with 100 μl of human CD3 ζ chain ITAM 2 phosphopeptide conjugated to BSA (˜10 pmole peptide equivalent) in PBS overnight at 4° C. and blocked with 300 μl of PBS containing 5% (wt/vol) powdered skim milk for 1 h at 37° C. After washing with PBS containing 1% Tween 20 (PBST), 3 times, 100 μl of precalibrated bacterial lysate containing recombinant GST Lck SH2 domain fusion protein was added in the presence or absence of test compounds and incubated for 1 h at room temperature. After 3 extensive washings with PBST, 100 μl of PBS containing HRP-conjugated rabbit anti-GST antibody was added and incubated for 1 h. After extensive washing with PBST, 100 μl of TMB substrate was added and absorbance at 620 nm was measured using a multiwell EIA plate reader (Anthos HTIII). The percent inhibition (% inhibition) was calculated based on the optical density (OD) using the formula: % inhibition=100−(ΔOD of test well/ΔOD of positive wells)×100, where ΔOD was calculated by subtracting background OD (average OD of negative wells) from the test as well as positive control wells. Error analysis was performed on two or more measurements.
Consider `Cc1cccc(NC(=O)CN2C(=O)S/C(=C\c3ccc(O)cc3)C2=O)c1` [276-6], for which the “inhibitory activity, in words” value is on record as “lower activity”.

Turning to `COC(=O)c1ccc(-c2ccc(/C=C3\SC(=O)N(CC(=O)Nc4ccc(C)cc4)C3=O)o2)c(C)c1` [276-8], the “inhibitory activity, in words” value is “weak inhibitors”.

For `Cc1ccc(NC(=O)CN2C(=O)S/C(=C\c3ccccc3O)C2=O)cc1` [276-11], the “inhibitory activity, in words” value is “lowest activity among the highly active compounds”.

Take `Cc1ccc(NC(=O)CN2C(=O)S/C(=C/c3ccc(-c4ccc(Cl)c(C(=O)O)c4)o3)C2=O)cc1` [276-13]: the “inhibitory activity, in words” value is recorded as “stronger inhibitors”.

`Cc1ccc(NC(=O)CN2C(=O)S/C(=C\c3cccc(O)c3)C2=O)cc1` [276-14]: the “inhibitory activity, in words” value was “lower activity”.

With `Cc1ccc(NC(=O)CN2C(=O)S/C(=C\c3ccc(O)cc3)C2=O)cc1` [276-15], the “inhibitory activity, in words” value is “lower activity”.
